{
  "source": "patent US12227551B2",
  "about": "“Membrane bound IL12 compositions and methods for tunable regulation” (Obsidian Therapeutics, Inc., priority 2018, dated 2025)",
  "system": "primary human T cells",
  "experiment": "Surface CAR and surface IL12 in CAR+ gate after 20 hours vardenafil, CD19-CAR-P2A-mbIL12-PDE5 constructs (Example 8; Table 22)",
  "format": "cell-based",
  "conditions": "5 μM Vardenafil, CAR+ cell gate, regulated CD19-CAR-P2A-mbIL12-PDE5 constructs",
  "protocol": "On day 0, primary human T cells were stimulated with Dynabeads (T-expander CD3/CD28) at a 3:1 bead: cell ratio in media containing 10% fetal bovine serum (FBS). The next day, lentivirus produced with constructs OT-001407 (CAR only control), OT-001895, OT-001894, OT-001891, OT-002044 were added in the presence of reduced serum (5% FBS). On day 2, the cells were diluted 1:2 with fresh 10% FBS media. […] After overnight incubation, transduction efficiency was analyzed by flow cytometry using CD19-Fc to detect surface CAR expression. Surface IL12 expression within the CAR+ cell gate was detected with an anti-IL12p70 antibody (BD, Franklin Lakes, N.J.) and is shown in Table 22.",
  "data": [
    {"smiles": "CCCc1nc(C)c2c(=O)[nH]c(-c3cc(S(=O)(=O)N4CCN(CC)CC4)ccc3OCC)nn12", "note": "[vardenafil, Vardenafil]", "values": [
      {"measurement": "increases in expression of surface IL12 compared to vehicle control", "value": "17-24 fold"}
    ]}
  ]
}
